Experimental data reported in patent US20250305981A1, “SWITCHING PEPTIDE AND IMMUNOASSAY USING SAME” (OPTOLANE TECHNOLOGIES INC., priority 2021, published 2025).

Tests used:
[1] = Diffusion coefficient (Dox) of ferrocene-labeled switching peptides in CV analysis (FIG. 8C); assay type: physicochemical; details: compared with H1 and L2 peptides
Description: FIG. 8C is a graph obtained by measuring a diffusion coefficient (Dox) of the switching peptides of the present disclosure in CV analysis. […] Therefore, L1 and H2 peptides labeled with ferrocene may be optimal probes for electrochemical immunoassay.

Anti-CRP antibody(r) = test: Fluorescence before/after antigen binding, peptide bound to immobilized antibody (Table 2); design: species or system rabbit; details: fluorescently labeled peptide
Anti-HRP antibody(r) = test: as above; design: species or system rabbit; details: fluorescently labeled peptide
[2] = tested on: Fab region of rabbit anti-HRP antibodies; test: Papain treatment of immobilized antibody bound to fluorescently labeled switching peptide (FIG. 6B); assay type: binding; details: after vs before papain
Description: In the case of this experiment, after immobilization of the antibodies (rabbit anti-HRP antibodies) on the microplate, binding between the antibody and the switching peptide was induced by treatment with a fluorescently labeled switching peptide, the unbound switching peptide was removed, and then the Fab region was hydrolyzed from the immobilized antibodies by adding papain, which is a protease. Referring to FIG. 6A, the fluorescence at the bottom (B) of the microplate is expected to decrease after the papain reaction because the fluorescently labeled switching peptides are bound to the Fab region of antibodies, and the fluorescence in the solution is expected to increase because the Fab region to which the switching peptide is bound is hydrolyzed and dissolved into the solution. This prediction is proven to be true from the graphs of FIG. 6B.

Anti-HBsAg antibody(g) = test: Fluorescence before/after antigen binding, peptide bound to immobilized antibody (Table 2); design: species or system goat; details: for fluorescence intensity at the bottom of the plate decreased by: after treatment with antigen HBsAg; for Bottom (B) of microplate After antigen binding, fluorescence intensity / Bottom (B) of microplate Before antigen binding, fluorescence intensity / Bottom (B) of microplate Change (%) / In solution (S) After antigen binding, fluorescence intensity / In solution (S) Before antigen binding, fluorescence intensity: antigen HBsAg, fluorescently labeled peptide
Anti-hCG antibody(m) = test: as above; design: species or system mouse; details: fluorescently labeled peptide
[3] = Dynamic laser scattering (DLS) of binding antibody bound to ferrocene-labeled switching peptide (FIG. 8A); assay type: physicochemical; details: compared with antibody bound to L2 or H1 peptide
Procedure: FIG. 8A is a result obtained by performing dynamic laser scattering (DLS) to compare the hydrodynamic radius of the switching peptides of the present disclosure. Referring to FIG. 8A, it can be confirmed that DLS was performed using intensity measurement of scattered light under monochromatic laser light, and a hydrodynamic radius of the binding antibody bound to the L1 or H2 peptide was smaller than that of the bound antibody bound to the L2 or H1 peptide.

[4] = target: anti-HRP antibody from a rabbit; test: One-step immunoassay with fluorescently labeled peptides, varying HRP antigen concentration (FIG. 7); assay type: binding; details: estimated; HRP antigen 0.3 to 100 μM, fluorescence in solution; read-out: Equilibrium dissociation constant
Description: FIG. 7A is a schematic diagram for explaining an immunoassay method using fluorescently labeled peptide compounds of Example 1, and FIGS. 7B and 7C are graphs illustrating the fluorescence intensities in a solution and at a bottom of the microplate depending on a concentration of the antigen measured by the immunoassay method illustrated in FIG. 7A. In this experiment, an anti-HRP antibody from a rabbit immobilized on a microplate was used as the binding antibody and HRP was used as the antigen.
Referring to FIGS. 7A to 7C, as a result of performing immunoassay while varying the concentration of antigen HRP from 0.3 to 100 μM, for the four types of switching peptides (H1, H2, L1, L2), an increase in the fluorescence intensity in the solution was observed depending on the concentration of the antigen (HRP).
Equilibrium dissociation constants of the H1, H2, L1, and L2 peptides were estimated to be 1.65, 3.11, 3.29, and 1.48 μM, and the difference in the dissociation constant for each switching peptide means that each switching peptide has a different detection area for each antigen.

H2 peptide = test: FRET test of specific interaction between L1 and H2 peptides on microplate; assay type: binding; details: FAM-L1 and TAMRA-H2, concentration of L1 peptide varied
Description: (§1) Here, at the ends of the L1 and L2 peptides, a first fluorescent label, FAM (λex=488 nm, λem=532 nm) was modified, and at the ends of the H1 and H2 peptides, a second fluorescent label, TAMRA (λex=532 nm, λem=570 nm) was modified.
Referring to FIG. 4A, the interaction between the L1 and H2 peptides was observed by changing the concentration of the L1 peptide, and the FRET intensity increased with increasing the concentration of the L1 peptide.

L2 peptide = test: FRET test of specific interaction between H1 and L2 peptides on microplate; assay type: binding; details: TAMRA-H1 and FAM-L2, concentration of H1 peptide varied
Description: as §1

Chain of H2 peptide (as listed by the source): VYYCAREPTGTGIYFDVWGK

| Substance | Bottom (B) of microplate After antigen binding, fluorescence intensity (Anti-CRP antibody(r)) | Bottom (B) of microplate Before antigen binding, fluorescence intensity (Anti-CRP antibody(r)) | Bottom (B) of microplate Change (%) (Anti-CRP antibody(r)) | In solution (S) After antigen binding, fluorescence intensity (Anti-CRP antibody(r)) | In solution (S) Before antigen binding, fluorescence intensity (Anti-CRP antibody(r)) | In solution (S) Change (%) (Anti-CRP antibody(r)) | Bottom (B) of microplate After antigen binding, fluorescence intensity (Anti-HRP antibody(r)) | Bottom (B) of microplate Before antigen binding, fluorescence intensity (Anti-HRP antibody(r)) | Bottom (B) of microplate Change (%) (Anti-HRP antibody(r)) | In solution (S) After antigen binding, fluorescence intensity (Anti-HRP antibody(r)) | In solution (S) Before antigen binding, fluorescence intensity (Anti-HRP antibody(r)) | decrease of fluorescence intensity at the bottom of the microplate after papain treatment [2] [%] | increase of fluorescence intensity in the solution after papain treatment [2] | fluorescence intensity at the bottom of the plate decreased by (Anti-HBsAg antibody(g)) [%] | Bottom (B) of microplate After antigen binding, fluorescence intensity (Anti-HBsAg antibody(g)) | Bottom (B) of microplate Before antigen binding, fluorescence intensity (Anti-HBsAg antibody(g)) | Bottom (B) of microplate Change (%) (Anti-HBsAg antibody(g)) | In solution (S) After antigen binding, fluorescence intensity (Anti-HBsAg antibody(g)) | In solution (S) Before antigen binding, fluorescence intensity (Anti-HBsAg antibody(g)) | Bottom (B) of microplate After antigen binding, fluorescence intensity (Anti-hCG antibody(m)) | further results |
| --- | --- | --- | --- | --- | --- | --- | --- | --- | --- | --- | --- | --- | --- | --- | --- | --- | --- | --- | --- | --- | --- |
| VYYCA REPTG TGIYF DVWGK [H2, homology to FR3 or FR4 region of the heavy chain] | 22205 | 22205 | −39.5 | 16311 | 2099 | +677% | 1806 | 122230 | −85.2 | 18128 | 2272 | 58.7 | 2,356% | 63.9 | 18773 | 29367 | −36.1 | 9136 | 1784 | 23320 | diffusion coefficient (Dox) [1]: relatively higher; Bottom (B) of microplate Before antigen binding, fluorescence intensity (Anti-hCG antibody(m)): 23320; Bottom (B) of microplate Change (%) (Anti-hCG antibody(m)): −88.5%; In solution (S) After antigen binding, fluorescence intensity (Anti-hCG antibody(m)): 8545; In solution (S) Before antigen binding, fluorescence intensity (Anti-hCG antibody(m)): 1654; In solution (S) Change (%) (Anti-hCG antibody(m)): +416%; hydrodynamic radius of the binding antibody bound to the peptide [3]: smaller; Kd [4]: 3110 nM |
| TYLEW YPQKP GQSPK LLIYK [L1, homology to FR2 region of the light chain] | 3456 | 6719 | −48.6 | 6505 | 741 | +778% | 1990 | 15608 | −87.3 | 12280 | 2687 | 84.8 | 1,032% | 48.7 | 5388 | 11062 | −51.3 | 20501 | 2779 | 1777 | diffusion coefficient (Dox) [1]: relatively higher; specific interaction (FRET intensity) (H2 peptide): specific interaction; Bottom (B) of microplate Before antigen binding, fluorescence intensity (Anti-hCG antibody(m)): 4630; Bottom (B) of microplate Change (%) (Anti-hCG antibody(m)): −61.6%; In solution (S) After antigen binding, fluorescence intensity (Anti-hCG antibody(m)): 3580; In solution (S) Before antigen binding, fluorescence intensity (Anti-hCG antibody(m)): 1248; In solution (S) Change (%) (Anti-hCG antibody(m)): +187%; hydrodynamic radius of the binding antibody bound to the peptide [3]: smaller; Kd [4]: 3290 nM |
| SYWIH WVKQR PGQGL EWIGE [H1, homology to FR2 region of the heavy chain] | 3595 | 4912 | −26.8 | 5659 | 2242 | +152% | 1451 | 11840 | −87.7 | 21965 | 2596 | 84.3 | 2,184% | 41.1 | 4618 | 11225 | −58.9 | 11453 | 2242 | 1940 | Bottom (B) of microplate Before antigen binding, fluorescence intensity (Anti-hCG antibody(m)): 5646; Bottom (B) of microplate Change (%) (Anti-hCG antibody(m)): −65.6%; In solution (S) After antigen binding, fluorescence intensity (Anti-hCG antibody(m)): 3921; In solution (S) Before antigen binding, fluorescence intensity (Anti-hCG antibody(m)): 1281; In solution (S) Change (%) (Anti-hCG antibody(m)): +206%; specific interaction (FRET intensity) (L2 peptide): specific interaction; Kd [4]: 1650 nM |
| VYYCF QGSHV PFTK [L2, homology to FR3 or FR4 region of the light chain] | 11236 | 20394 | −44.9 | 32187 | 3274 | +883% | 3208 | 12584 | −74.5 | 16135 | 2315 | 72.5 | 2,452% | 35.2 | 9856 | 28002 | −64.8 | 15359 | 2279 | 3072 | Bottom (B) of microplate Before antigen binding, fluorescence intensity (Anti-hCG antibody(m)): 33156; Bottom (B) of microplate Change (%) (Anti-hCG antibody(m)): −90.7%; In solution (S) After antigen binding, fluorescence intensity (Anti-hCG antibody(m)): 9402; In solution (S) Before antigen binding, fluorescence intensity (Anti-hCG antibody(m)): 1692; In solution (S) Change (%) (Anti-hCG antibody(m)): +456%; Kd [4]: 1480 nM |
